Columns and labels:
[1] = system: human dermis fibroblasts NHDFs; assay: Cytotoxicity study of the fractions, cell viability to MTS (Example 3); type: cell-based; details: 24 h, 100, 50, 25, 12.5 and 6.25 μM, cytotoxicity threshold 80% viability
Method: (§1) The study has been made on human dermis fibroblasts NHDFs (ATCC, CRL-2522, origin: foreskin) at about 40% of their proliferative potential in vitro. These cells have been cultivated in single layer in DMEM medium (Invitrogen, 31885-049) containing 10% foetal calf serum (Invitrogen, 10270-106) and antibiotics (penicillin/streptomycin, Invitrogen, 15140-122). These cells have been maintained in a wet atmosphere at 37° C. containing 5% CO2.
In order to determine the optimum analysis concentration for the fractions, a preliminary experiment has been made on human dermis fibroblasts NHDFs having performed 30.3 population doublings. This study consisted in evaluating cell viability to MTS (3-(4,5-dimethythiazol-2-yl)-5-(3-carboxy-methoxyphenyl)-2-(4-sulphophenyl)-2H-tetrazolium) (Promega, G3581) after 24 h treatment for the 4 fractions, at 5 concentrations (100 μM, 50 μM, 25 μM, 12.5 μM, and 6.25 μM) and in culture triplicates (n=3). The fractions and extract have been prepared in DMSO and DPG70 respectively, the effect of these 2 vehicles has also been tested.
0.08% SDS (sodium dodecyl sulphate) has been used as a cytotoxicity positive control in order to validate the experiment.
In order to determine the optimum study concentration of the 4 fractions, a cytotoxicity study has been made on human dermis fibroblasts NHDFs, based on 5 concentrations after 24 h contact (n=3). The experimental parameters were identical to those used in the following for the study of the effects on the gene expression in terms of culture passages of the cells, confluence and contact time. The effect of the 2 vehicles (DPG70 and DMSO) has been tested in parallel.
The results have been compared to the untreated control and 0.08% SDS has been used as a cytotoxicity positive control in order to validate the experiment. The cytotoxicity threshold has been arbitrarily set to 80% viability.

fibroblasts NHDFs [2] = assay: Real time qPCR of Nrf-2 regulated genes (Example 3); type: cell-based, human; details: 24 h, fraction at 50 μM, vs 0.5% DMSO control
Description: In order to determine which fraction of the extract according to the invention is responsible for this effect, the expression variations of seven target markers (involved in cellular and skin ageing induced by four fractions of an Ipomoea batatas root extract, and by the extract itself, in fibroblasts have been measured by qRT-PCR. A condition corresponding to fibroblasts NHDFs irradiated with UVA (10 J/cm^2) has been analysed in parallel as a positive control for the test.
The seven markers studied (HOMX1, NQO1, HSPA1A, GCLM, GSTP1, UGT1A6 and NOS2) are genes the expression of which is known to be regulated by the transcription factor Nrf-2, playing a major role in the antioxidant defence.
as §1
The extraction of total RNAs has been made using the RNeasy kit (Qiagen, 74106), after 24 h treatment with the fractions or 6 h after UVA irradiation. The cells have been rinsed with PBS and lysed in ad hoc buffer (culture triplicates have been made for each condition). The extraction and purification of the RNAs have been made according to the supplier's instructions. The total RNAs have been preserved at −80° C. afterwards.
The real time qPCR method has been used to quantise the expression of target markers in the different populations of RNAs. The specific TaqMan probes have been synthesised by the company Applied Biosystems.
The target sequences of the genes of interest have been amplified by PCR by using the “TaqMan Gene Expression Assays” (Applied Biosystems). […] The TaqMan probes have been grafted with a fluorophore (FAM) at the 5′ end of the sequence with a 3′ fluorescence quencher. […]

fibroblasts NHDFs [3] = assay: Induction of a radical stress by the actives, ROS with H2DCFDA probe; type: cell-based, human; details: fibroblasts treated with Trolox, normalised to MTS viability, vs 0.1% EtOH control
Method: The study has been made on human dermis fibroblasts NHDFs (ATCC, CRL-2522, origin: foreskin) cultured in single layer in DMEM medium (Invitrogen, 31885-049) containing 10% foetal calf serum (Invitrogen, 10270-106) and antibiotics (Penicillin/Streptomycin, Invitrogen, 15140-122). These cells have been maintained in a wet atmosphere at 37° C. containing 5% CO2. In order to validate the hypothesis of a hormetic effect, it has been checked beforehand that the treatment by the actives alone induced a radical stress. The test used is based on the use of the fluorescent probe H2DCFDA (2′-7′dichlorodihydrofluorescein diacetate, Fischer Scientific, #D399). The probe diffusion into the cell enables its acetate group to be cleaved by intracellular esterases. […] The production of free radicals can thus be quantised by the level of fluorescence emitted by the probe oxidised. […] After rinsing, the fluorescence emitted has been quantised (excitation: 485 nm; emission: 520 nm). In order to provide a result representative of the cellular population of each condition, a cellular viability test (MTS) has been made immediately after quantising the fluorescence emitted. The fluorescence values have thus been normalised with respect to the cellular viabilities.

| SMILES | cytotoxicity (cell viability to MTS) [1] | overexpression of genes of interest (HMOX1, HSPA1A, NQO1, GCLM, GSTP1; FIGS. 7 to 11) (fibroblasts NHDFs [2]) | production of reactive oxygen species (ROS), radical stress (fibroblasts NHDFs [3]) |
| --- | --- | --- | --- |
| O=C(/C=C/c1ccc(O)c(O)c1)OC1CC(O)(C(=O)O)CC(O)C1OC(=O)/C=C/c1ccc(O)c(O)c1 (stereo not shown) [STL964, 3,4-DCQ (Isochlorogenic acid B)] | no cytotoxicity | do not induce an overexpression | – |
| O=C(/C=C/c1ccc(O)c(O)c1)OC1CC(O)(C(=O)O)CC(OC(=O)/C=C/c2ccc(O)c(O)c2)C1O (stereo not shown) [STL965, 3,5-DCQ (Isochlorogenic acid A)] | no cytotoxicity | do not induce an overexpression | – |
| Cc1c(C)c2c(c(C)c1O)CCC(C)(C(=O)O)O2 (stereo not shown) [Trolox] | – | – | no radical stress |
| O=C(/C=C/c1ccc(O)c(O)c1)OC1CC(O)(C(=O)O)CC(O)C1OC(=O)/C=C/c1ccc(O)c(O)c1 (stereo not shown) [STL967, 4,5-DCQ (Isochlorogenic acid C)] | no cytotoxicity | do not induce an overexpression | – |

From US10426717B2, “Glycol esters of dicaffeoylquinic acid and uses thereof” (PLANT ADVANCED TECHNOLOGIES PAT, priority 2016, dated 2019)
